Columns and labels:
Assay type in all cases: cell-based, mouse
BMDM viability = assay: Resazurin cell viability assay in BMDMs; settings: increasing doses up to 100 μM
Experimental: In order to better assess the potential cellular toxicity of DSHN-OMe, we treated BMDMs with increasing doses and measured their ability to reduce resazurin to resorufin (similar to the MTT viability assay).
Resazurin cell viability assay. 20,000 cells were seeded into 96 well f-bottom, black plates (Corning Costar) and cell viability was measured using 100 μL resazurin per well at 0.3 mg/mL (Acros Organics). The fluorescence signal was quantified by plate reader (560 nm excitation/590 nm emission) at 2-3 h.

Treg expansion = Treg expansion in co-culture with compound-treated BMDMs (macrophages); parameters: key to Treg expansion macrophages: ✓: using strict cutoffs with respect to DSHN for passing each metric; X: using strict cutoffs with respect to DSHN for passing each metric; settings: for Treg expansion after BMDM pretreatment and washout: BMDMs pretreated, washed before co-culture with T cells; for Treg expansion, co-culture with treated BMDMs: dose response
Experimental: Preparation of Bone Marrow-Derived Macrophages (BMDMs) and Dendritic Cells. Bone marrow cells were collected from mouse tibia and femur. Cells were passed through 70-micron cell strainer and subsequently cultured 10 mL complete RPMI media supplemented with 20 ng/mL of recombinant murine M-CSF (576406; BioLegend, 315-02 PeproTech). On day 3, additional 5 ml of the complete media was added. On day 7, media was replaced. BMDMs were harvested on day 10 using cell stripper solution for further experiments. Dendritic cells were isolated from the spleens of wildtype, using mouse CD11c UltraPure MicroBeads (130-125-835; Miltenyi Biotec) according to the manufacturer's instructions) and cultured in RPMI medium supplemented with 10% heat-inactivated charcoal-stripped FBS, 50 μM β-mercaptoethanol, 1% sodium pyruvate, 1% nonessential amino acids, % penicillin/streptomycin, and 1% Glutamax.
In vitro Treg expansion assays. T cells were cultured in RPMI medium supplemented with 10% heat-inactivated charcoal-stripped FBS, 50 μM β-mercaptoethanol (Gibco), 1% sodium pyruvate, 1% nonessential amino acids, % penicillin/streptomycin, and 1% Glutamax (Gibco). Naïve CD4^+ T cells were isolated from the spleens of wildtype and OT-II, using Naive CD4^+ T Cell Isolation Kit (Miltenyi Biotec according to the manufacturer's instructions). T cells were labeled with the vital dye CFSE (BioLegend) or Cell Trace Violet (ThermoFisher) according to the manufacturer's instructions. For wildtype Treg expansion in presence of antigen presenting cells, naïve CD4^+ T cells were co-cultured with APC at indicated ratio in the presence of 0.5 μg/mL (anti-CD3 BioLegend), 0.5 ng/mL TGFβ (BioLegend) and 0.5 ng/ml IL-2 (BioLegend) for 72 hr at 37° C. For OT-II Treg expansion, OTII naïve CD4^+ T cells from OT-II mice were activated by antigen presentation by culturing BMDMs were primed with 10 μg/mL OVA323-339 (Bachem) and 0.5 μg/mL LPS (Sigma). naïve CD4+ T cells from OTII mice were co-cultured with primed APC at indicated ratio for 72 hrs. After 72 hrs of culture, cells were transferred into V-bottom plates (BD), pelleted by centrifugation and incubated with antibody staining mix containing Ghost Dye™ Red 780 viability dye diluted in PBS for 15 minutes at 4° C. Cell surface antigens were stained for 15 minutes at 4° C. with an antibody staining mix containing Ghost Dye™ Red 780 viability dye diluted in PBS. Cells were fixed and permeabilized with BD Cytofix/Cytoperm™ for 20 minutes at 4° C. Antibodies against intracellular antigens were diluted in 1×BD Perm/Wash™ buffer and cells were stained for 30 minutes at 4° C. Cytometry data were acquired on a LSRII, Fortessa, Symphony A1 (Becton Dickinson, NJ). Foxp3 induction was assessed by expression of FOXP3.

[1] = system: inflammasome associated genes; assay: Inflammasome associated gene expression in BMDMs (LPS, nigericin)
Experimental: FIG. 8A-8D. DSHN-OMe attenuates induction of inflammasome associated genes when BMDMs are treated with both LPS and nigericin, not LPS alone. * indicates P<0.05 when comparing to DMSO.
Inflammasome activation, RNA extraction, quantitative real PCR. When comparing inflammasome responses, BMDMs were treated with 500 ng/mL LPS for 4 h 37° C. in complete RPMI 1640. After 4 hr priming, 15 μM Nigericin was added for 45 mins at 37° C. Next, media was removed, washed with PBS and inflammasome activation was assessed using qPCR or inflammasome caspase-1 activity was measured using Caspase-Glo® 1 inflammasome assay kit (G9951; Promega) according to manufacturer's instructions.

## CCN(CC)S(=O)(=O)c1cccc2cc(C(=O)O)c(O)cc12 [DSHN, reference compound]
BMDM viability
  BMDM viability (resazurin reduction): no significant difference was observed in viability up to 100 μM
Treg expansion
  Treg expansion after BMDM pretreatment and washout: not effective at reducing Treg expansion
  Treg expansion, co-culture with treated BMDMs: reduced subsequent Treg expansion in a dose related manner
[1]
  Expression of inflammasome associated genes, priming and activation signal: able to blunt the expression of inflammasome associated genes

## CCN(CC)S(=O)(=O)c1cccc2cc(C(=O)OC)c(O)cc12 [DSHN-OMe, Methyl 5-(N,N-diethylsulfamoyl)-3-hydroxy-2-naphthoate]
BMDM viability
  BMDM viability (resazurin reduction): no significant difference was observed in viability up to 100 μM
Treg expansion
  Treg expansion after BMDM pretreatment and washout: decreased Treg expansion
  Treg expansion, co-culture with treated BMDMs: elicited a reduction in Treg expansion with a lower dose, and had a larger biological maximum
Treg expansion; pass/fail with respect to DSHN
  Treg expansion macrophages: ✓
[1]
  Expression of inflammasome associated genes, priming and activation signal: able to blunt the expression of inflammasome associated genes

Reference: patent US20260257992A1, “AGONISTS OF SMALL HETERODIMER PARTNER FOR CANCER THERAPY” (THE BOARD OF TRUSTEES OF THE UNIVERSITY OF ILLINOIS, priority 2023, published 2026)
